Key:
full NCI 60 cell panel = test: NCI 60 Cell One-dose screen; assay type: cell-based, human; settings: single high dose 10^−5 M, NCI 60 panel
From the text: Compounds were submitted to the NCI 60 Cell screen and tested at a single high dose (10^−5 M) in the full NCI 60 cell panel (see the following reference for details of using NCI 60 human tumor cell lines for screening anticancer drugs: Shoemaker R H. The NCI60 human tumor cell line anticancer drug screen. Nature Rev Cancer 2006; 6: 813-23). The One-dose data is reported as a mean graph of the percent growth of treated cells. The number reported for the One-dose assay is growth relative to the no-drug control, and relative to the time zero number of cells. This allows detection of both growth inhibition (values between 0 and 100) and lethality (values less than 0). For example, a value of 100 means no growth inhibition. A value of 40 would mean 60% growth inhibition. A value of 0 means no net growth over the course of the experiment. A value of −40 would mean 40% lethality. A value of −100 means all cells are dead. FIGS. 1-8 show the mean graph of percent growth against the NCI-60 cell panel for NUCC-0226674, NUCC-0226679, NUCC-0226680, NUCC-0226683, NUCC-0226689, NUCC-0226694, NUCC-0226695, and NUCC-0226698.

HL-60(TB) = test: NCI 60 five-dose screen HL-60(TB); assay type: cell-based; settings: Homo sapiens, five-dose
MOLT-4 = test: NCI 60 five-dose screen MOLT-4; assay type: cell-based; settings: Homo sapiens, five-dose
RPMI-8226 = test: NCI 60 five-dose screen RPMI-8226; assay type: cell-based; settings: Homo sapiens, five-dose
SR = test: NCI 60 five-dose screen SR; assay type: cell-based, human; settings: five-dose
NCI-H226 = test: NCI 60 five-dose screen NCI-H226; assay type: cell-based; settings: Homo sapiens, five-dose
NCI-H322M = test: NCI 60 five-dose screen NCI-H322M; assay type: cell-based; settings: Homo sapiens, five-dose
COLO 205 = test: NCI 60 five-dose screen COLO 205; assay type: cell-based; settings: Homo sapiens, five-dose
KM12 = test: NCI 60 five-dose screen KM12; assay type: cell-based; settings: Homo sapiens, five-dose
U251 = test: NCI 60 five-dose screen U251; assay type: cell-based; settings: Homo sapiens, U-251, five-dose
LOX IMVI = test: NCI 60 five-dose screen LOX IMVI; assay type: cell-based; settings: Homo sapiens, five-dose
MDA-MB-435 = test: NCI 60 five-dose screen MDA-MB-435; assay type: cell-based; settings: Homo sapiens, five-dose
SK-MEL-28 = test: NCI 60 five-dose screen SK-MEL-28; assay type: cell-based; settings: Homo sapiens, five-dose
SK-MEL-5 = test: NCI 60 five-dose screen SK-MEL-5; assay type: cell-based; settings: Homo sapiens, five-dose
UACC-62 = test: NCI 60 five-dose screen UACC-62; assay type: cell-based; settings: Homo sapiens, five-dose
OVCAR-5 = test: NCI 60 five-dose screen OVCAR-5; assay type: cell-based; settings: Homo sapiens, five-dose
OVCAR-8 = test: NCI 60 five-dose screen OVCAR-8; assay type: cell-based; settings: Homo sapiens, five-dose
786-0 = test: NCI 60 five-dose screen 786-0; assay type: cell-based; settings: Homo sapiens, five-dose
RXF 393 = test: NCI 60 five-dose screen RXF 393; assay type: cell-based; settings: Homo sapiens, five-dose
SN12C = test: NCI 60 five-dose screen SN12C; assay type: cell-based; settings: Homo sapiens, five-dose
TK-10 = test: NCI 60 five-dose screen TK-10; assay type: cell-based; settings: Homo sapiens, five-dose
MDA-MB-231/ATCC = test: NCI 60 five-dose screen MDA-MB-231/ATCC; assay type: cell-based; settings: Homo sapiens, five-dose
BT-549 = test: NCI 60 five-dose screen BT-549; assay type: cell-based; settings: Homo sapiens, five-dose
MDA-MB-468 = test: NCI 60 five-dose screen MDA-MB-468; assay type: cell-based; settings: Homo sapiens, five-dose
[1] = read-out: LC50 (the source's name) (converted)
[2] = read-out: LC50 (the source's name)

SMILES: FC(F)(F)c1cc2c(Cl)ncnc2n1CCN1CCCCC1 [NUCC-0226679]
- growth inhibition in the One-Dose Screen (full NCI 60 cell panel): significant growth inhibition
- GI50 (HL-60(TB)): 2.09 µM
- IC50 (HL-60(TB)): 4.37 µM
- IC (TGI) (HL-60(TB)): 7.41 µM
- CC50 (HL-60(TB); [1]): ≥ 100 µM
- GI50 (MOLT-4): 10.5 µM
- IC50 (MOLT-4): 25.1 µM
- IC (TGI) (MOLT-4): 55 µM
- CC50 (MOLT-4; [2]): ≥ 100 µM
- GI50 (RPMI-8226): 31.6 µM
- IC50 (RPMI-8226): 45.7 µM
- IC (TGI) (RPMI-8226): 100 µM
- CC50 (RPMI-8226; [2]): ≥ 100 µM
- GI50 (SR; Homo sapiens): 3.31 µM
- IC50 (SR; Homo sapiens): 6.17 µM
- CC50 (SR; Homo sapiens, read-out: LC50 (the source's name)): ≥ 100 µM
- TGI (SR): 4.58 −log[M]
- GI50 (NCI-H226): 60.3 µM
- IC50 (NCI-H226): 100 µM
- IC (TGI) (NCI-H226): 100 µM
- CC50 (NCI-H226; [1]): ≥ 100 µM
- GI50 (NCI-H322M): 15.5 µM
- IC50 (NCI-H322M): 36.3 µM
- IC (TGI) (NCI-H322M): 43.7 µM
- CC50 (NCI-H322M; [1]): ≥ 100 µM
- GI50 (COLO 205): 52.5 µM
- IC50 (COLO 205): 100 µM
- IC (TGI) (COLO 205): 100 µM
- CC50 (COLO 205; [1]): ≥ 100 µM
- GI50 (KM12): 29.5 µM
- IC50 (KM12): 41.7 µM
- IC (TGI) (KM12): 100 µM
- CC50 (KM12; [1]): ≥ 100 µM
- GI50 (U251): 14.1 µM
- IC50 (U251): 22.9 µM
- IC (TGI) (U251): 34.7 µM
- CC50 (U251; [1]): 87.1 µM
- GI50 (LOX IMVI): 1.7 µM
- IC50 (LOX IMVI): 2.95 µM
- IC (TGI) (LOX IMVI): 3.09 µM
- CC50 (LOX IMVI; [1]): 5.75 µM
- GI50 (MDA-MB-435): 13.2 µM
- IC50 (MDA-MB-435): 21.9 µM
- IC (TGI) (MDA-MB-435): 30.2 µM
- CC50 (MDA-MB-435; [1]): 67.6 µM
- GI50 (SK-MEL-28): 15.8 µM
- IC50 (SK-MEL-28): 30.2 µM
- IC (TGI) (SK-MEL-28): 38 µM
- CC50 (SK-MEL-28; [1]): 89.1 µM
- GI50 (SK-MEL-5): 14.8 µM
- IC50 (SK-MEL-5): 26.3 µM
- IC (TGI) (SK-MEL-5): 30.9 µM
- CC50 (SK-MEL-5; [1]): 64.6 µM
- GI50 (UACC-62): 12 µM
- IC50 (UACC-62): 22.4 µM
- IC (TGI) (UACC-62): 30.2 µM
- CC50 (UACC-62; [1]): 75.9 µM
- GI50 (OVCAR-5): 100 µM
- IC50 (OVCAR-5): 100 µM
- IC (TGI) (OVCAR-5): 100 µM
- CC50 (OVCAR-5; [1]): ≥ 100 µM
- GI50 (OVCAR-8): 12.6 µM
- IC50 (OVCAR-8): 20.4 µM
- IC (TGI) (OVCAR-8): 33.1 µM
- CC50 (OVCAR-8; [1]): 87.1 µM
- GI50 (786-0): 39.8 µM
- IC50 (786-0): 66.1 µM
- IC (TGI) (786-0): 100 µM
- CC50 (786-0; [1]): ≥ 100 µM
- GI50 (RXF 393): 15.5 µM
- IC50 (RXF 393): 45.7 µM
- IC (TGI) (RXF 393): 40.7 µM
- CC50 (RXF 393; [1]): ≥ 100 µM
- GI50 (SN12C): 19.5 µM
- IC50 (SN12C): 34.7 µM
- IC (TGI) (SN12C): 100 µM
- CC50 (SN12C; [1]): ≥ 100 µM
- GI50 (TK-10): 100 µM
- IC50 (TK-10): 100 µM
- IC (TGI) (TK-10): 100 µM
- CC50 (TK-10; [1]): ≥ 100 µM
- GI50 (MDA-MB-231/ATCC): 5.5 µM
- IC50 (MDA-MB-231/ATCC): 14.5 µM
- IC (TGI) (MDA-MB-231/ATCC): 19.5 µM
- CC50 (MDA-MB-231/ATCC; [1]): 50.1 µM
- GI50 (BT-549): 15.1 µM
- IC50 (BT-549): 30.2 µM
- IC (TGI) (BT-549): 29.5 µM
- CC50 (BT-549; [1]): 58.9 µM
- GI50 (MDA-MB-468): 3.02 µM
- IC50 (MDA-MB-468): 18.2 µM
- IC (TGI) (MDA-MB-468): 9.33 µM
- CC50 (MDA-MB-468; [1]): 38.9 µM
